Here are results for 1 molecule from ChEMBL document CHEMBL4011630 (J Med Chem, 2017).

Assay [1] concerns the target Nicotinic acetylcholine receptor alpha6/alpha3/beta4 (Rattus norvegicus, UniProt P04757+P12392+P43143). Put plainly: Antagonist activity at rat alpha6/alpha3beta4 nACHR expressed in xenopous laevis oocyte assessed as inhibition of ACh induced channel current at -70 mV holding potential by two electrode voltage clamp method.
Assay [2] has as its target Neuronal acetylcholine receptor; alpha3/beta4 (Rattus norvegicus, UniProt P04757+P12392). Put plainly: Antagonist activity at rat alpha3beta4 nACHR expressed in xenopous laevis oocyte assessed as inhibition of ACh induced channel current at -70 mV holding potential by two electrode voltage clamp method.
Assay [3] is filed under the species Rattus norvegicus. Kind of assay: Selectivity ratio of IC50 for rat alpha6/alpha3beta4 nACHR expressed in xenopous laevis oocyte at -70 mV holding potential to IC50 for rat alpha3beta4 nACHR expressed in xenopous laevis oocyte at -70 mV holding potential.

Each structure is given as a SMILES string.

Sequence of Neuronal acetylcholine receptor; alpha3/beta4 (P04757 whole entry): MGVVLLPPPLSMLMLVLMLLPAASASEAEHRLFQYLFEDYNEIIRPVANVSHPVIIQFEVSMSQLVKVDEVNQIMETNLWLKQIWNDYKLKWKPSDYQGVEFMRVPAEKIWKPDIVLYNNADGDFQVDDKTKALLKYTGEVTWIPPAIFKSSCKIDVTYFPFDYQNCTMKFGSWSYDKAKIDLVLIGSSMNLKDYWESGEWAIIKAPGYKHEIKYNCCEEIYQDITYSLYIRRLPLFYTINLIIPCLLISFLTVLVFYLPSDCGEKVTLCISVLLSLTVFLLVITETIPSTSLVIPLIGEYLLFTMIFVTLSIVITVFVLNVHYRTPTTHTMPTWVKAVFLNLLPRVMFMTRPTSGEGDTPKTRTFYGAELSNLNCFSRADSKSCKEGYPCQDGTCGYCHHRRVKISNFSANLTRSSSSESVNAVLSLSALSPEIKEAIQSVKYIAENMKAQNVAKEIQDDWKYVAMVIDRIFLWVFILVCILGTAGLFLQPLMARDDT
Sequence of Neuronal acetylcholine receptor; alpha3/beta4 (P12392 whole entry): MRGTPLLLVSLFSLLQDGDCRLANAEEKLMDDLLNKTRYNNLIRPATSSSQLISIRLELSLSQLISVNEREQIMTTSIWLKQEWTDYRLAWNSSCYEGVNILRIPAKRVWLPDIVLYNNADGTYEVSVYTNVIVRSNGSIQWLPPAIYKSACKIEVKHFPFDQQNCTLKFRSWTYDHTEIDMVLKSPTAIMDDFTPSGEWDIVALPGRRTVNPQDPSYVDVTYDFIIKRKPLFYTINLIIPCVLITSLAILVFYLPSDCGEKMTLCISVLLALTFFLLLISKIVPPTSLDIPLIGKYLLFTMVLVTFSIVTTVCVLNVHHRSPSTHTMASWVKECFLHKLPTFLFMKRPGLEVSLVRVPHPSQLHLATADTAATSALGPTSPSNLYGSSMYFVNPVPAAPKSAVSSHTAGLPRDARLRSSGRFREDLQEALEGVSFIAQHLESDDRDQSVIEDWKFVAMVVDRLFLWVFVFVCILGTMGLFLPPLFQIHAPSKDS
Sequence of Nicotinic acetylcholine receptor alpha6/alpha3/beta4 (P04757 whole entry): as the sequence (P04757 whole entry) above
Sequence of Nicotinic acetylcholine receptor alpha6/alpha3/beta4 (P12392 whole entry): as the sequence (P12392 whole entry) above
Sequence of Nicotinic acetylcholine receptor alpha6/alpha3/beta4 (P43143 whole entry): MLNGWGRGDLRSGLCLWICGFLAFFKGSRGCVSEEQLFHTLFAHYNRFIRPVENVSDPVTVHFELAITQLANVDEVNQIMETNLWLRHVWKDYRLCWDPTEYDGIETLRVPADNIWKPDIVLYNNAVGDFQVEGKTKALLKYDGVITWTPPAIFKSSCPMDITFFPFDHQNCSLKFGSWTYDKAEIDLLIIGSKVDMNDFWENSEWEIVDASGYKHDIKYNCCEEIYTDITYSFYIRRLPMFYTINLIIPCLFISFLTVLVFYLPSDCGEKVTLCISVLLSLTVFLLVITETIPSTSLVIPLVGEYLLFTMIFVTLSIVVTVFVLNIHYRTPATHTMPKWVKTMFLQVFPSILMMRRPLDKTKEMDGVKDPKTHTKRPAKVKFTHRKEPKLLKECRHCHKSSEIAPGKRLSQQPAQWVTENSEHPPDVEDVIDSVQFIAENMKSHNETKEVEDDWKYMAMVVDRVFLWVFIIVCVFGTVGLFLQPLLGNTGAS

`CC(C)C[C@@H]1NC(=O)[C@H](C(C)C)NC(=O)[C@H](C)NC(=O)[C@@H]2CSSC[C@H](NC(=O)CN)C(=O)N[C@@H](CSSC[C@H](C(N)=O)NC(=O)[C@H](Cc3ccc(O)cc3)NC1=O)C(=O)N[C@@H](CO)C(=O)N[C@@H]([C@@H](C)O)C(=O)N1CCC[C@H]1C(=O)N1CCC[C@H]1C(=O)N2`: the IC50 was 1.54 nM in assay [1] and 27.7 nM in assay [2]. In addition, the Ratio IC50 in assay [3] was 0.056.
